# Assays:
# Kif18A = Kif18A (Homo sapiens, UniProt Q8NI77); test: cryo-EM reconstruction; format: binding
# [1] = molecular target: αβ-tubulin heterodimer (in paclitaxel-stabilized microtubules, or as curved tubulin in rings); test: cryo-EM 2D class averages
stoichiometry N [1],Molecule,cryo-EM reconstruction (~6 Å) of MT-bound Kif18A_MDNL with AMPPNP (Kif18A)
,Nc1ncnc2c1ncn2[C@@H]1O[C@H](CO[P@](=O)(O)O[P@](=O)(O)NP(=O)(O)O)[C@@H](O)[C@H]1O [AMPPNP],"In the presence of AMPPNP, the nucleotide-binding site is clearly occupied by the bound nucleotide"
1,"Kif18A_MDNL, monomeric human Kif18A motor-neck linker construct (domain or fragment) MSVTEEDLCHHMKVVVRVRPENTKEKAAGFHKVVHVVDKHILVFDPKQEEVSFFHGKKTTNQNVIKKQNKDLKFVFDAVFDETSTQSEVFEHTTKPILRSFLNGYNCTVLAYGATGAGKTHTMLGSADEPGVMYLTMLHLYKCMDEIKEEKICSTAVSYLEVYNEQIRDLLVNSGPLAVREDTQKGVVVHGLTLHQPKSSEEILHLLDNGNKNRTQHPTDMNATSSRSHAVFQIYLRQQDKTASINQNVRIAKMSLIDLAGSERASTSGAKGTRFVEGTNINRSLLALGNVINALADSKRKNQHIPYRNSKLTRLLKDSLGGNCQTIMIAAVSPSSVFYDDTYNTLKYANRAKDIKSSLKSNVLNVNNHITQYV",

# Reference: PMC5692573 (Proceedings of the National Academy of Sciences of the …, 2017)
